For series [1], the system named is Plasmodium falciparum. The series is described as follows: Antimalarial activity against chloroquine/pyrimethamine resistant Plasmodium falciparum K1 assessed as parasite growth inhibition by measuring [3H]-hypoxanthine incubated for 24 hrs. The format is functional, organism-based.
Series [2] is described as follows: Selectivity index, ratio of IC50 for rat L6 cells to IC50 for Plasmodium falciparum NF54. It counts as toxicity. The settings on record: read-out: Ratio IC50.
A short description of series [3]: Cytotoxicity against rat L6 cells assessed as cell growth inhibition. The format is toxicity, cell-based.
The subject of series [4] is Plasmodium falciparum. The series is described as follows: Antimalarial activity against Plasmodium falciparum NF54 assessed as parasite growth inhibition. The format is functional, organism-based.
In series [5] the test system is Hemozoin. Kind of series: Inhibition of beta-hematin formation.
The subject of series [6] is Plasmodium falciparum. Kind of series: Antimalarial activity against chloroquine/mefloquine resistant Plasmodium falciparum clinical isolates assessed as parasite growth inhibition incubated for 24 hrs by microtechnique method. It counts as functional, organism-based.
Series [7] has as its target T1, Telomerase reverse transcriptase (Homo sapiens, UniProt O14746). The series is described as follows: Inhibition of telomerase derived from human K562 cell extract incubated for 30 mins by TRAP assay. It counts as cell-free.
Series [8] deals with SK-HEP1. Kind of series: Antiproliferative activity against human SK-HEP1 cells assessed as cell growth inhibition. It counts as functional, cell-based.
The subject of series [9] is HCT-116. Kind of series: Antiproliferative activity against human HCT-116 cells assessed as cell growth inhibition. The format is functional, cell-based.
Series [10] concerns the target T1, Telomerase reverse transcriptase. Kind of series: Inhibition of telomerase derived from human A2780 cell extract by TRAP assay. It counts as cell-free.
Series [11] deals with Plasmodium berghei. The series is described as follows: Antimalarial activity against Plasmodium berghei NK65 infected in Webster Swiss mouse assessed as parasite growth inhibition at 50 mg/kg/day, po for 5 days by geimsa dye based microscopy relative to control. It counts as functional. Also noted: scale not given: the % may be the effect or the level left. The settings on record: time 5 day.

For series [12], the system named is MCF7. Kind of series: Antiproliferative activity against human MCF7 cells assessed as cell growth inhibition. The format is functional, cell-based.
Series [13] deals with DNA topoisomerase 2-beta (Homo sapiens) (UniProt Q02880). The series is described as follows: Inhibition of human topoisomerase-2-beta.
Series [14] has as its system A549. The series is described as follows: Antiproliferative activity against human A549 cells assessed as cell growth inhibition. It counts as functional, cell-based.
Series [15] deals with K562. The series is described as follows: Antiproliferative activity against human K562 cells assessed as cell growth inhibition. It counts as functional.
In series [16] the test system is RPMI-8226. The series is described as follows: Antiproliferative activity against human RPMI-8226 cells assessed as cell growth inhibition. The format is functional.
The subject of series [17] is HL-60. Kind of series: Antiproliferative activity against human HL-60 cells assessed as cell growth inhibition. The format is functional.
The subject of series [18] is MOLT-4. Kind of series: Antiproliferative activity against human MOLT-4 cells assessed as cell growth inhibition. It counts as functional.
The test system of series [19] is SR. The series is described as follows: Antiproliferative activity against human SR cells assessed as cell growth inhibition. It counts as functional.
For series [20], the system named is Hemozoin. Kind of series: Inhibition of detergent-mediated beta-hematin formation incubated for 5 to 6 hrs by absorbance based assay.
A short description of series [21]: Selectivity index, ratio of IC50 for rat L6 cells to IC50 for erythrocytic Plasmodium falciparum NF54. The format is toxicity. The settings on record: read-out: Ratio IC50.
Series [22] has as its system Plasmodium falciparum. Kind of series: Antimalarial activity against Plasmodium falciparum K1 assessed as parasite growth inhibition. It counts as functional, organism-based.
Series [23] in a line: Selectivity index, ratio of IC50 for rat L6 cells to IC50 for erythrocytic Plasmodium falciparum K1. The format is toxicity. The settings on record: read-out: Ratio IC50.

Values after ≈ are worked out from the molar mass of the structure shown.

T1 sequence (O14746 whole entry): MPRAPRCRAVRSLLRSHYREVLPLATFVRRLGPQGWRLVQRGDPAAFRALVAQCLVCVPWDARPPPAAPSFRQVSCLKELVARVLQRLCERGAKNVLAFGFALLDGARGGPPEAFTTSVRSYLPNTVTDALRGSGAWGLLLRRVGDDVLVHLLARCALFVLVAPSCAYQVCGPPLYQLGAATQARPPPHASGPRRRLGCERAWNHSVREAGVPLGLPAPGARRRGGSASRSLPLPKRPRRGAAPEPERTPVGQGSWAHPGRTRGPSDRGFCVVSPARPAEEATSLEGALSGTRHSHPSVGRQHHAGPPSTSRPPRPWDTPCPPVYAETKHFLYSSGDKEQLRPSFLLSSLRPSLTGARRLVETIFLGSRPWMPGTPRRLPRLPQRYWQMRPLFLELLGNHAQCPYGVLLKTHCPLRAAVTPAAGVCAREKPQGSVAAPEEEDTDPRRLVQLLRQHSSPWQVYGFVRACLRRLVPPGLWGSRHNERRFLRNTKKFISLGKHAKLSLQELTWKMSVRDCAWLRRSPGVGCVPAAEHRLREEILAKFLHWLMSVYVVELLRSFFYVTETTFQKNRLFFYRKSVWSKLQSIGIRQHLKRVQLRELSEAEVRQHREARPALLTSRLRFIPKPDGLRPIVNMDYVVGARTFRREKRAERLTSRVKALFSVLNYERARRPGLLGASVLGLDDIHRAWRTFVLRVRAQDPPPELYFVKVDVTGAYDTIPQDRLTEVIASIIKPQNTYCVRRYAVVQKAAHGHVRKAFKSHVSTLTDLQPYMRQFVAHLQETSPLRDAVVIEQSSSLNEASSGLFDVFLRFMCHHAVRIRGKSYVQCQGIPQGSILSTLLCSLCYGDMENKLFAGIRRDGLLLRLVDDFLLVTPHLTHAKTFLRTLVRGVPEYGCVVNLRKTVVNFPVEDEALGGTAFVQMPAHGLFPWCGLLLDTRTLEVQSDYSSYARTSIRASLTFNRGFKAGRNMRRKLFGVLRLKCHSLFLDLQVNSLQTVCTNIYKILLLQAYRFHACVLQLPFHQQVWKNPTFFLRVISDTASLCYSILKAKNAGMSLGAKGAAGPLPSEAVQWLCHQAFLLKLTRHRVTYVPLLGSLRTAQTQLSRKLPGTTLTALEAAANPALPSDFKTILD
Sequence of DNA topoisomerase 2-beta (Homo sapiens) (Q02880 whole entry): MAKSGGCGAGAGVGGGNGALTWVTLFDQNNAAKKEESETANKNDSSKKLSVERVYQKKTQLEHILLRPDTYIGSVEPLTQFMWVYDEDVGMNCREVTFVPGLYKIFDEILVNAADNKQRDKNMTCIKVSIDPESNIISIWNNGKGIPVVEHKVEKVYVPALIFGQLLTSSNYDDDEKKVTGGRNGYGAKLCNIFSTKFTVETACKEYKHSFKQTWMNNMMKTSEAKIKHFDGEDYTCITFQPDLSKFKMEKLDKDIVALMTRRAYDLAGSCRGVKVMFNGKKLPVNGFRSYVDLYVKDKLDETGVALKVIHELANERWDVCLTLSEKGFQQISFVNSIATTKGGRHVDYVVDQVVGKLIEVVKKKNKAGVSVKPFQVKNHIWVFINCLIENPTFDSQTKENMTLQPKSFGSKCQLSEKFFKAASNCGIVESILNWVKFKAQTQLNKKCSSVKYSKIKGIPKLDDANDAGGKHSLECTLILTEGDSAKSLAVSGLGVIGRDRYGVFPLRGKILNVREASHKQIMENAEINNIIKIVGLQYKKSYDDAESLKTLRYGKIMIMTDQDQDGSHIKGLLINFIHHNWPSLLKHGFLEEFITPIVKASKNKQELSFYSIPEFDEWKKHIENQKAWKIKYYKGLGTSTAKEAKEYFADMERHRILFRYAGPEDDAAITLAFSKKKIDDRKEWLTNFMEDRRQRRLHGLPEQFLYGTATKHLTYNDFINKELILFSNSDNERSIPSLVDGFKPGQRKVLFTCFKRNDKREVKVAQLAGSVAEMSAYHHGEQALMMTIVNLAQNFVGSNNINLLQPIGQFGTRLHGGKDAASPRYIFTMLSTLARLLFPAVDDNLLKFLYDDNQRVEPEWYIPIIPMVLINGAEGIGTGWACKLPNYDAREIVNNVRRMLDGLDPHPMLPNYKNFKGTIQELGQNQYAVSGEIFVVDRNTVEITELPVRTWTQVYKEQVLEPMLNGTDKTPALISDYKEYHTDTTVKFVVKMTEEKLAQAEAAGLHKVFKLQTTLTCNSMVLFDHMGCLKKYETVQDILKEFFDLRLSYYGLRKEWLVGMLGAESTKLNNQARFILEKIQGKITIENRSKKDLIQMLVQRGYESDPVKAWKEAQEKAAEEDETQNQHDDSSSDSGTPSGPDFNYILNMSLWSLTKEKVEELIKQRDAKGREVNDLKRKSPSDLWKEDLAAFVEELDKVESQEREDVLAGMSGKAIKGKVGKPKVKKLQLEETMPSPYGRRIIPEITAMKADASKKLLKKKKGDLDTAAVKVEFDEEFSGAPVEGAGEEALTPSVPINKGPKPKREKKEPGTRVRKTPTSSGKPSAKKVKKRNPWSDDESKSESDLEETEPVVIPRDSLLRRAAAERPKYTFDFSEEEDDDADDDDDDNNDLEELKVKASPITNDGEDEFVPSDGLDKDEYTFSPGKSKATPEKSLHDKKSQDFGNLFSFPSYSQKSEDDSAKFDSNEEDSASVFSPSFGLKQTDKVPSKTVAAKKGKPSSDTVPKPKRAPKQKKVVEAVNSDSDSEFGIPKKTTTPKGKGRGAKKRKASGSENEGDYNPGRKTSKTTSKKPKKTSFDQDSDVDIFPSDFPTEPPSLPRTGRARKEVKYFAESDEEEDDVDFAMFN

For the compound `COc1cc2c(cc1CN1CCC(N3CCCCC3)CC1)[nH]c1c3ccc(Cl)cc3ncc21`, in [1], the IC50 (usually the concentration at which inhibition is half-maximal) was 0.05 µM.
`Cn1c2nc3ccccc3c-2c(NCC(C)(C)CNC(=S)Nc2ccccc2)c2ccccc21`: the selectivity ratio in [2] came to 126. The IC50 in [3] worked out at 7.25 µM; in series [4] it was 0.057 µM; in series [5] it was 19.9 µM.
As for `COc1cc2c(cc1CN(C)CCCN(C)C)[nH]c1c3ccc(Cl)cc3ncc21`, the concentration for half-maximal inhibition (IC50) in series [6] worked out at 0.000192 µM.
Regarding `COc1ccc2[nH]c3c4ccc(Cl)cc4ncc3c2c1`, the IC50 in series [6] was determined as 0.002 µM.
`OCCNc1c2ccccc2nc2c1[nH]c1ccccc12` yielded a half-maximal inhibitory concentration (IC50) in series [7] of 2.35 µM.
For `c1ccc2c(c1)nc(NCCCNCCCNc1nc3ccccc3c3[nH]c4ccccc4c13)c1c3ccccc3[nH]c21`, in [8], the 50% inhibitory concentration (IC50) turned out to be 0.09 µM.
For `O=C(NCCNc1c2ccccc2nc2c1[nH]c1ccccc12)c1ccccc1`, the IC50 in [9] amounted to 0.8 µM.
`c1cc2nc3c(cc2cc1CCCN1CCCCC1)[nH]c1ccc(CCCN2CCCCC2)cc13`: in series [10], the IC50 stood at 11.8 µM.
Consider `C[n+]1c2ccccc2cc2[n-]c3ccccc3c21` [CRYPTOLEPINE], for which the Activity in [11] is 43%. The results for the half-maximal inhibitory concentration (IC50) in series [12] and in series [14] were 0.63 µM and 1.05 µM, respectively. For the same compound, the MIC in series [13] was found to be 0.25 µM (≈ 0.0581 µg/mL).
In series [10], `c1cc2nc3c(cc2cc1CCCN1CCCC1)[nH]c1ccc(CCCN2CCCC2)cc13` displayed an IC50 of 6.3 µM.
Take `COc1c2c3ccccc3nc-2n(C)c2ccccc12`: the GI50 (as a rule, the concentration at which growth is held to half of that of the control) in series [15] stood at 11.5 µM; in series [16] it was 6.04 µM; in series [17] it was 9.88 µM; in [18], 4.7 µM; in series [19] it was 7.1 µM.
`OCCCNc1c2ccccc2nc2c1[nH]c1ccccc12` showed an IC50 in [7] of 1.55 µM.
`Cn1c2nc3ccccc3c-2c(Nc2ccccc2)c2ccccc21`: the 50% growth inhibitory concentration (GI50) in [15] is 1.84 µM; in series [16], 1.08 µM; in [18] it was 0.32 µM.
Take `CNCCCNc1c2ccccc2nc2c1[nH]c1ccccc12`: the half-maximal inhibitory concentration (IC50) in series [9] was determined as 0.3 µM.
As to `Cn1c2nc3ccccc3c-2c(NCC(C)(C)CNC(=O)Nc2ccccc2)c2ccccc21`, in [2], the selectivity ratio turned out to be 82.2. In addition, the IC50 in series [3] turned out to be 5.65 µM; in [4], 0.068 µM; in series [5], 26.3 µM.
With `C[C@H]1[C@H](OC(=O)CCC(=O)NCCCNc2c3ccccc3nc3c2[nH]c2ccccc23)O[C@@H]2O[C@@]3(C)CC[C@H]4[C@H](C)CC[C@@H]1[C@@]24OO3`, the IC50 in series [20] was determined as 17.1 µM. The selectivity ratio in series [21] stood at 1720.
For `c1ccc2c(NCCN3CCOCC3)c3[nH]c4ccccc4c3nc2c1`, half-maximal inhibition in [7] (IC50) required 0.55 µM.
Turning to `COc1ccc(Nc2c3c4ccccc4nc-3n(C)c3ccccc23)cc1`, the GI50 amounted to 0.42 µM in [15]; 0.14 µM in series [16]; 0.11 µM in series [17]; 0.09 µM in [18]; 0.19 µM in series [19].
Take `Cn1c2nc3ccccc3c-2c(NCC(C)(C)CNC(=O)Nc2ccccc2)c2cc(Cl)ccc21`: the IC50 in series [3] is 1.18 µM; in series [4], 0.019 µM; in series [5], 10.1 µM.
With `CCN(CC)Cc1cc2[nH]c3c4ccc(Cl)cc4ncc3c2cc1OC`, the concentration for half-maximal inhibition (IC50) in series [22] turned out to be 0.009 µM.
Take `C[C@H]1[C@H](OC(=O)CCC(=O)NCCCNc2nc3ccccc3c3[nH]c4ccccc4c23)O[C@@H]2O[C@@]3(C)CC[C@H]4[C@H](C)CC[C@@H]1[C@@]24OO3`: the 50% inhibitory concentration (IC50) in series [20] stood at 15.7 µM. The selectivity ratio in [23] is 3280.
